Reference: patent publication US20210395327A1, “Growth Hormone-Releasing Hormone Antagonists and Uses Thereof” (United States Government As Represented By The Department …, priority 2019, published 2021)
Non-standard residues stand in square brackets, D forms with d. Residues, ends and D or L forms follow the SMILES beside them. *: point of attachment. Phe(F5) = N[C@@H](Cc1c(F)c(F)c(F)c(F)c1F)C(=O)O; hArg = N=C(N)NCCCC[C@H](N)C(=O)O; 12Ado = NCCCCCCCCCCCC(=O)O; Nle = CCCC[C@H](N)C(=O)O; Orn = NCCC[C@H](N)C(=O)O; Abu = CC[C@H](N)C(=O)O; PhAc = O=C(Cc1ccccc1)*

What was measured:
[1] = test system: KATOIII stomach cancer cells; assay: In vitro cell viability, KATOIII; type: cell-based, human; settings: antagonist 5 μM for 72 h, cell proliferation assay; MIA602 = 1
Outline: (§1)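 Cells grown to ~60% confluence, serum-starved 24 h in 0.5% FBS, then treated with antagonists at 1, 2.5 or 5 μM or vehicle (0.1% DMSO) in quintuplicate for 72 h, medium replaced every 48 h. Viability read by MTS-type CellTiter 96 AQueous One assay; expressed as inhibitory potency relative to MIA602.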

[2] = test system: PANC-1 pancreatic cancer cells; assay: In vitro cell viability, PANC-1; type: cell-based, human; settings: antagonist 5 μM for 72 h, cell proliferation assay; MIA602 = 1
Outline: as §1

[3] = test system: J82 urothelial cancer cells; assay: In vitro cell viability, J82; type: cell-based, human; settings: antagonist 5 μM for 72 h, cell proliferation assay; MIA602 = 1
Outline: as §1

[4] = test system: HCC1806 breast cancer cells; assay: In vitro cell viability, HCC1806; type: cell-based, human
Outline: (§2)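 Cells grown to ~60% confluence, serum-starved 24 h in 0.5% FBS medium, then exposed to compounds at 5 μM (some at 2 μM) or 0.1% DMSO vehicle for 72 h, in quintuplicate, medium changed every 48 h. Viability read by MTS-type CellTiter 96 AQueous assay; values are inhibitory potency relative to MIA602.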

MX-1 breast cancer cells = assay: In vitro cell viability, MX-1; type: cell-based, human
Outline: as §2

[5] = test system: SK-OV-3 ovarian cancer cells; assay: In vitro cell viability, SK-OV-3; type: cell-based, human; settings: Table 3B; * at 2 μM for 72 H; MIA-602 = 1
Method: (§3) The inhibitory effects of the various synthesized GHRH antagonists were tested in cell proliferation assays in various human cancer cell lines including stomach cancer (KATOIII, N87), colon cancer (HT-29), urothelial cancer (J82, RT4), pancreatic cancer (PANC-1, CFPAC-1), prostatic cancer (PC3), breast cancer (MX-1, HCC1806), ovarian cancer (SK-OV-3, OVCAR-3) and lung cancer (HCC827, H460).
(§4) Cell culture. Human cancer cell lines including pancreatic (PANC-1 and CFPAC-1), lung (HCC827 and H460), stomach (NCI-N87 and KATOIII), urothelial (J82, RT4), prostatic (PC3), breast (MX-1 and HCC 1806), colorectal (HT-29), and ovarian (SK-OV-3 and OVCAR-3) were obtained from the American Type Culture Collection (ATCC) and cultured at 37° C. in a humidified 95% air/5% CO2 atmosphere in the medium recommended by ATCC.
(§5) In vitro cell viability. Cell viability was analyzed as follows: cancer cells including pancreatic (PANC-1 and CFPAC-1), lung (HCC827 and H460), stomach (NCI-N87 and KATOIII), urothelial (J82, RT4), prostatic (PC3) and breast (MX-1 and HCC 1806), colorectal (HT-29) and ovarian (SK-OV-3 and OVCAR-3) were grown on 96 well plates to ˜60% confluence, the cells were starved for 24 h in culture medium containing 0.5% FBS. Cells were then treated with GHRH antagonists MIA602 AVR compounds at concentrations of 1, 2.5 or 5 μM, or vehicle (0.1% DMSO) in quintuplicates for 72 hours. The medium was replaced every 48 hours. Cell viability was measured using CellTiter 96 aqueous one solution kit (Promega). Inhibitory effects of tested AVR compounds in comparison to that of MIA602 are presented as inhibitory potency.
(§6) Inhibitory effects of selected AVR compounds in comparison to that of MIA602 are presented as inhibitory potency (e.g., percentage of inhibition). […] The cell lines tested including lung cancer HCC827 (FIG. 2A), pancreatic cancer CFPAC-1 (FIG. 2B), stomach cancer N87 (FIG. 2C), colon cancer HT-29 (FIG. 2D), breast cancers MX-1 and HCC1806 (FIGS. 2 E, F). […]

[6] = test system: OVCAR-3 ovarian cancer cells; assay: In vitro cell viability, OVCAR-3; type: cell-based, human; settings: Table 3B; * at 2 μM for 72 H; MIA-602 = 1
Method: as §3, §4, §5, §6

[7] = test system: pancreatic cancer PANC-1 xenograft; assay: Xenograft tumor growth in nude mice, PANC-1; type: in vivo; settings: Table 4A, Pancreatic Ca PANC-1, 7 weeks, 5 μg/day s.c.
Method: (§7) The peptides' activity was compared with GHRH antagonist MIA-602. All statistical analyzses were performed from comparing GHRA antagonists to non-treated tumor (control).
(§8) Peptides and chemicals. GHRH antagonists MIA-602 and AVR-GHRH antagonists (see Table 2 above) were synthesized by solid phase methods and purified by HPLC. The peptides were dissolved in DMSO and further diluted in 10% 1,2-propanediol. The final concentration of peptides was 50 µg/ml in 10% 1,2-propanediol containing 0.1% of DMSO.
as §4, with “(NCI-N87), prostate” for “(NCI-N87 and KATOIII), urothelial (J82, RT4), prostatic”, “brest” for “breast”, “HCC-1806),” for “HCC 1806),”
(§9) Xenograft models of human cancers in nude mice. Female athymic (NCr nu/nu) nude mice, 5- to 6-weeks-old, obtained from the Envigo labs (Tampa, Fla.), were housed in laminar airflow cabinets under pathogen-free conditions with a 12-h light/12-h dark schedule, and were fed autoclaved standard chow and water. To generate mice with xenografted tumors, tumor xenografts were initiated by subcutaneous (s.c.) injection of 107 human cancer cells into female nude mice. After about 4 weeks the resulting tumors were dissected and collected after removing necrosis tissues. The tumors were then cut into particles with size of 3 mm3 and transplanted s.c. by trocar needle into experimental animals. When tumors grew to the size of 50-60 mm3 (by volume), mice were randomized into groups and treated daily for 4-8 weeks by subcutaneous administration of 5 μg of GHRH antagonists MIA-602 or AVR-compounds (2-10 μg as indicated), or vehicle solutions (0.1% DMSO in 10% 1,2-propanediol) respectively. Tumor sizes were measured weekly.
(§10) Statistical analysis. One-way ANOVA followed by Bonferroni comparison were performed. Data are expressed as Mean±SEM. To determine statistical significance between animal groups, two-tailed Student's t-test was conducted. Differences were considered significant when p<0.05.
(§11) Results. […] FIG. 1A-N represents in vivo inhibition of tumor growth during the treatment with GHRH antagonist MIA-602 and selected AVR antagonists in nude mice xenografted with various human tumors including pancreatic cancer PANC-1 (FIG. 1A) and CFPAC-1 (FIG. 1I); lung cancer HCC827 (FIGS. 1B, C) and H460 (FIG. 1H); stomach cancer N87 (FIGS. 1D-F); colon cancer HT-29 (FIG. 1G); breast cancer MX-1 and HCC-1806 (FIGS. 1J, K); ovarian cancer SK-OV-3 and OVACAR-3 (FIGS. 1 L, M) and prostate cancer PC3 (FIG. 1N). See also Table 5.

[8] = test system: ovarian cancer SK-OV-3 xenograft; assay: Xenograft tumor growth in nude mice, SK-OV-3; type: in vivo; settings: Table 4L, Ovarian Ca SK-OV-3, 7 weeks, 5 μg/day s.c.
Method: as §7, §8
as §4, with “(NCI-N87), prostate” for “(NCI-N87 and KATOIII), urothelial (J82, RT4), prostatic”, “brest” for “breast”, “HCC-1806),” for “HCC 1806),”
as §9, §10, §11

[9] = Table 3B, 5 μM for 72 H, MIA-602 = 1
[10] = antagonist 5 μM for 72 h, cell proliferation assay, MIA602 = 1

## CCCC[C@H](NC(=O)[C@@H](NC(=O)[C@H](CC(=O)O)NC(=O)[C@H](CCC(N)=O)NC(=O)[C@H](CC(C)C)NC(=O)[C@H](CC(C)C)NC(=O)[C@H](CCCN)NC(=O)[C@H](Cc1c[nH]cn1)NC(=O)[C@H](C)NC(=O)[C@H](CO)NC(=O)[C@H](CC(C)C)NC(=O)[C@H](CCC(N)=O)NC(=O)[C@H](CC)NC(=O)[C@H](CC(C)C)NC(=O)[C@@H](NC(=O)[C@H](CCCN)NC(=O)[C@H](Cc1c[nH]cn1)NC(=O)[C@H](Cc1ccc(OC)cc1)NC(=O)[C@H](CCCCNC(=N)N)NC(=O)[C@H](C)NC(=O)[C@@H](NC(=O)[C@H](Cc1c(F)c(F)c(F)c(F)c1F)NC(=O)[C@@H](NC(=O)[C@H](C)NC(=O)[C@H](CC(=O)O)NC(=O)[C@@H](CCCNC(=N)N)NC(=O)[C@H](Cc1ccc(O)cc1)NC(=O)CCCCCCCCCCCNC(=O)Cc1ccccc1)[C@@H](C)CC)[C@@H](C)O)C(C)C)[C@@H](C)CC)C(=O)N[C@H](CCCNC(=N)N)C(=O)N[C@@H](CCCCNC(=N)N)C(N)=O [MIA-602, PhAC-Ada, Tyr D-Arg, Asp, Ala, Ile, 5FPhe, Thr, Ala, Har, Tyr(Me), His, Orn, Val, Leu, Abu, Gin, Leu, Ser, Ala, His, Om, Leu, Leu, Gin, Asp, Ile; Nle, D-Arg, Har NH2, reference compound] ({PhAc-12Ado}-Y[dR]DAI[Phe(F5)]TA[hArg]Y(Me)H[Orn]VL[Abu]QLSAH[Orn]LLQDI[Nle][dR][hArg]-NH2)
[1]
  relative inhibitory potency in comparison to MIA-602, Stomach KATOIII: 1
[2]
  relative inhibitory potency in comparison to MIA-602, Pancreatic Panc-1: 1
[3]
  relative inhibitory potency in comparison to MIA-602, Urothelial J82: 1
[4]; [9]
  In vitro relative inhibitory potency in comparison to MIA-602, HCC-1806: 1
[4]; [10]
  relative inhibitory potency in comparison to MIA-602, Breast IICC1806: 1
MX-1 breast cancer cells; [9]
  In vitro relative inhibitory potency in comparison to MIA-602, MX-1: 1
MX-1 breast cancer cells; [10]
  relative inhibitory potency in comparison to MIA-602, Breast MX-1: 1
[5]
  In vitro relative inhibitory potency in comparison to MIA-602, SKOV-3: 1
[6]
  In vitro relative inhibitory potency in comparison to MIA-602, OVCAR-3: 1
[7]
  Tumor Growth %: 1572.7%
[7]; vs control
  % Inhibition: 41.1%
[8]
  Tumor Size (mm3): 810.1 mm3
[8]; vs control
  % Inhibition: 38.0%
